Data set [1] relates to SenzaCell cells. The conditions noted are these: 24 h stimulation, compared between the two chemicals, FIG. 6.
The subject of data set [2] is MUTZ-3 cells. The conditions noted are these: 24 h stimulation, compared between the two chemicals, FIG. 6.

Turning to `C=CC(=O)OCCO` [2-hydroxyethylacrylate], the “SVM prediction value (prediction pattern)” value in data set [1] and in data set [2] was “higher prediction value than DNCB” in each case.

These data come from US11815509B2, “Cell line and uses thereof” (priority 2017, dated 2023).
